Test results reported in ChEMBL document CHEMBL4020778, “Recent progress towards clinically relevant ATP-competitive Akt inhibitors” (Bioorg Med Chem Lett, 2017).

Legend:
[1] = Ratio of drug level in tumor to plasma in CrTac:Ncr-Fox1nu mouse at 40 mg/kg, po administered once daily for 2 days measured after 24 hrs post last dose; assay type: ADME, organism-based
[2] = target: Ribosomal protein S6 kinase alpha-1/alpha-3 (Homo sapiens) (UniProt P51812+Q15418); test: Inhibition of RSK1/2 (unknown origin) at 10 uM relative to control; assay type: protein assay
Ribosomal protein S6 kinase alpha-1/alpha-3 (Homo sapiens), sequence (P51812 whole entry, looked up, the tested form may be a part): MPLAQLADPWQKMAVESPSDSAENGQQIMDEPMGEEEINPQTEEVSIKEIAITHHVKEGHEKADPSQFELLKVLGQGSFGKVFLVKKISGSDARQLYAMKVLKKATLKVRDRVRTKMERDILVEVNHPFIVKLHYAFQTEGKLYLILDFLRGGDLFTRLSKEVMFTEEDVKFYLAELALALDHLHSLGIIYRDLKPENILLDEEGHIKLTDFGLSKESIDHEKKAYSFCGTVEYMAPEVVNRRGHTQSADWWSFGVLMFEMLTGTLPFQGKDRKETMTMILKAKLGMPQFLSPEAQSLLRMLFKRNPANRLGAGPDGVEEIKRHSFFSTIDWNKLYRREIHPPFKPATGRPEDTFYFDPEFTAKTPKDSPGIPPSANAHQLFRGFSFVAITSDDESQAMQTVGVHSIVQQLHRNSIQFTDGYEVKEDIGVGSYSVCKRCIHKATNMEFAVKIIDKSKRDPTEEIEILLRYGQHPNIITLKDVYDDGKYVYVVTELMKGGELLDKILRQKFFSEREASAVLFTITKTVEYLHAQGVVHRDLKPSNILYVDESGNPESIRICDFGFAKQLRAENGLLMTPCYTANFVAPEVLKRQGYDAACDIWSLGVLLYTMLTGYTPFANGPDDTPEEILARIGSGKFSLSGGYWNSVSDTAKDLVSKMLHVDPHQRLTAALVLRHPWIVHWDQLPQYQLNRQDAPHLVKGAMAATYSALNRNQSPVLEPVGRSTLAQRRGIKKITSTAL
Ribosomal protein S6 kinase alpha-1/alpha-3 (Homo sapiens), sequence (Q15418 whole entry, looked up, the tested form may be a part): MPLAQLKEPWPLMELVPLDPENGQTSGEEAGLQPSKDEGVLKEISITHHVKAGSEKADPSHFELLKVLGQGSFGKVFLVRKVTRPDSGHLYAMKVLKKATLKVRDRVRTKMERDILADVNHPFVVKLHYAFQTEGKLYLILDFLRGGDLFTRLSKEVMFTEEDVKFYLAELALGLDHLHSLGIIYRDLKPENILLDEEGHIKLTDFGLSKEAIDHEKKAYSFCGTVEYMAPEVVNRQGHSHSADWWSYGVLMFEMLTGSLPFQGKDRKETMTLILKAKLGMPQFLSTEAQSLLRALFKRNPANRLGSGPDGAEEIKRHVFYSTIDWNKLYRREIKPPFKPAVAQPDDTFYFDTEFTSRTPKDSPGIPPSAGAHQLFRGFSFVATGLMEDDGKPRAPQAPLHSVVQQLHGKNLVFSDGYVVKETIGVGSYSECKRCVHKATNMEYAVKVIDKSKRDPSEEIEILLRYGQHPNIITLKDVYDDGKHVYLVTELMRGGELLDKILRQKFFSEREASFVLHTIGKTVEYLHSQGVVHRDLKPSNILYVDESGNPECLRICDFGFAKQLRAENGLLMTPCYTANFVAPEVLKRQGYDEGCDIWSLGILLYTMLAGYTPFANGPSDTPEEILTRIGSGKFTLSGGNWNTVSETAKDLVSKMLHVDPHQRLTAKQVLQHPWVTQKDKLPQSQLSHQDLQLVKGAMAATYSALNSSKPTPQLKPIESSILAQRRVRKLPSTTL

[3] = tested on: T1, Serine/threonine-protein kinase Sgk1 (Homo sapiens), O00141 [S422D]; test: Inhibition of human SGK1 S422D mutant (60 to 431 residues) at 10 uM using substrate after 5 mins in presence of [33P]ATP by scintillation counting method relative to control
T1 sequence (whole entry): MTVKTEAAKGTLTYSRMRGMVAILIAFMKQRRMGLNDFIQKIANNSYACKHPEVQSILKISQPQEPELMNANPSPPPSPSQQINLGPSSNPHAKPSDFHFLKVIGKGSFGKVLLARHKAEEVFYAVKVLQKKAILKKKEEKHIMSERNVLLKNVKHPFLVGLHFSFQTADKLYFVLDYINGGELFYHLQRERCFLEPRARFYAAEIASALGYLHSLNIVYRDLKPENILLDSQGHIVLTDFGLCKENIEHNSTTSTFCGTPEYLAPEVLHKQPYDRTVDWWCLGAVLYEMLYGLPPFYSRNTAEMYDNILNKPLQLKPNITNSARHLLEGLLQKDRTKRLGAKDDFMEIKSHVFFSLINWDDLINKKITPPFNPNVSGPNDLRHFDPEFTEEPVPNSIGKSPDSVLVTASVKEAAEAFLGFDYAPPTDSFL

Homo sapiens [4] = organism: Homo sapiens; test: Inhibition of PKA (unknown origin) at 10 uM relative to control
[5] = target: cAMP-dependent protein kinase catalytic subunit alpha (Homo sapiens, UniProt P17612); test: Inhibition of recombinant human His-tagged PKA catalytic domain (1 to 351 residues) expressed in Escherichia coli using Ser/Thr 7 as substrate after 1 hr by FRET-based Z'-Lyte assay
[6] = Half life in Balb/c mouse at 5 mg/kg, iv by LC-MS/MS analysis; assay type: ADME, organism-based; settings: in vivo
BT-474 = test: Anti-tumor activity against human BT474 cells xenografted in CrTac:Ncr-Fox1nu mouse assessed as reduction in tumor weight at 40 mg/kg, po administered once daily for 2 days measured after 26 days relative to control; assay type: functional
Homo sapiens [7] = organism: Homo sapiens; test: Inhibition of MSK (unknown origin) at 10 uM relative to control
[8] = tested on: Ribosomal protein S6 kinase beta-1 (Homo sapiens), P23443 [T412E]; test: Inhibition of human p70S6K T412E mutant (1 to 421 residues) at 10 uM using substrate after 5 mins in presence of [33P]ATP by scintillation counting method relative to control
Ribosomal protein S6 kinase beta-1 (Homo sapiens), P23443 [T412E], sequence (P23443 whole entry T412E, looked up, the tested form may be a part): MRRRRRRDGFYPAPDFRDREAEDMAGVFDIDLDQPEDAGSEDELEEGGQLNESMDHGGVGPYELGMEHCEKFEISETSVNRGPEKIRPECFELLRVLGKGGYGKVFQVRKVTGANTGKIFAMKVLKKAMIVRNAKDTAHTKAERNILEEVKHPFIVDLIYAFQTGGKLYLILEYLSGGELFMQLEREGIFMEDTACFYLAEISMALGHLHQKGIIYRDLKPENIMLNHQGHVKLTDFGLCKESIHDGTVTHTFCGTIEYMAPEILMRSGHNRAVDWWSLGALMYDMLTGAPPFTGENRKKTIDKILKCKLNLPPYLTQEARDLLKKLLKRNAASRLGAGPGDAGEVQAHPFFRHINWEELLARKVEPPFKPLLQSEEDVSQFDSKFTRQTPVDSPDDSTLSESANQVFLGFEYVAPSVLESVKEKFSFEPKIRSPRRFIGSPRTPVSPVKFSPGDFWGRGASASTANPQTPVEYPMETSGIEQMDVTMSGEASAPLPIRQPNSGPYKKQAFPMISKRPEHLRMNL

[9] = target: Rho-associated protein kinase 1 (Homo sapiens) (UniProt Q13464); test: Inhibition of ROCK1 (unknown origin) at 10 uM relative to control
[10] = target: Rho-associated protein kinase 2 (Rattus norvegicus) (UniProt Q62868); test: Inhibition of rat ROCK2 (2 to 543 residues) at 10 uM using substrate after 5 mins in presence of [33P]ATP by scintillation counting method relative to control
Rho-associated protein kinase 2 (Rattus norvegicus), sequence (Q62868 whole entry, looked up, the tested form may be a part): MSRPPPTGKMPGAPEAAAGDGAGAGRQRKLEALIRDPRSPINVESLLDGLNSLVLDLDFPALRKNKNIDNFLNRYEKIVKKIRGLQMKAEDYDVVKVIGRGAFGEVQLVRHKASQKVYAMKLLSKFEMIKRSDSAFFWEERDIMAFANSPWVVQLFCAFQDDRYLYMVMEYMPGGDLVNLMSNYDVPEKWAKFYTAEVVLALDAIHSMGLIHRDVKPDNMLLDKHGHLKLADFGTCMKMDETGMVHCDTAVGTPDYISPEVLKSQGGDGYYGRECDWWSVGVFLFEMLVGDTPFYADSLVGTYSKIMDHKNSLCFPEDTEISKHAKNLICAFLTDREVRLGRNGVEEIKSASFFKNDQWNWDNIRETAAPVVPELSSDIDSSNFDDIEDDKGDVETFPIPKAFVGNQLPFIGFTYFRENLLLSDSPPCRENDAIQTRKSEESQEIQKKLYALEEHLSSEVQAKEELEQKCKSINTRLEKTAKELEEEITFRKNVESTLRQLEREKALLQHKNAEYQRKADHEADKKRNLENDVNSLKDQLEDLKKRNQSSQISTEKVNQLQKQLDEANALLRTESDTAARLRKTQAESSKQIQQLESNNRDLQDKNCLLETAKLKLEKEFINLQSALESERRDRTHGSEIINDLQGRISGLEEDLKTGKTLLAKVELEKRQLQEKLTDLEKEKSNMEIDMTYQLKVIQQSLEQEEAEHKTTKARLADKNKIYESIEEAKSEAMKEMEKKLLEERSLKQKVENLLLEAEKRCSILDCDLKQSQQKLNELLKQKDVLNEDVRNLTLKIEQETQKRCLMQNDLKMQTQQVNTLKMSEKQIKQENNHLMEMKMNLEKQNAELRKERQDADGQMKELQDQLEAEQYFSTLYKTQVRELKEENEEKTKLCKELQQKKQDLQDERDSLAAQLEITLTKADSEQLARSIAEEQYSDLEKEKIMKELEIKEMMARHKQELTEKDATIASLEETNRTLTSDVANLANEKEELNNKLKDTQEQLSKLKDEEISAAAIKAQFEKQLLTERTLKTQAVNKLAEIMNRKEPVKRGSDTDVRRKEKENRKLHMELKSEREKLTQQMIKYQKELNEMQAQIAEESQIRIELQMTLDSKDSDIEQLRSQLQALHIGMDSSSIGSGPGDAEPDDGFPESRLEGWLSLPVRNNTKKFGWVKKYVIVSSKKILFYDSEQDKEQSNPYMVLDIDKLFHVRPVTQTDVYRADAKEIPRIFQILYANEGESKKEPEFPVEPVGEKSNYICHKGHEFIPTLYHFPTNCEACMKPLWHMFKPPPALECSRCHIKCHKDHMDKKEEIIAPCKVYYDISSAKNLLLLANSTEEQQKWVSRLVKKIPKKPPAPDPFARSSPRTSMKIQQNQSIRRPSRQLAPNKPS

[11] = target: Glycogen synthase kinase-3 beta (Homo sapiens) (UniProt P49841); test: Inhibition of GSK3beta phosphorylation at ser9 in human U87MG cells at >1 uM by Western blot analysis relative to control; assay type: cell-based
Glycogen synthase kinase-3 beta (Homo sapiens), sequence (P49841 whole entry, looked up): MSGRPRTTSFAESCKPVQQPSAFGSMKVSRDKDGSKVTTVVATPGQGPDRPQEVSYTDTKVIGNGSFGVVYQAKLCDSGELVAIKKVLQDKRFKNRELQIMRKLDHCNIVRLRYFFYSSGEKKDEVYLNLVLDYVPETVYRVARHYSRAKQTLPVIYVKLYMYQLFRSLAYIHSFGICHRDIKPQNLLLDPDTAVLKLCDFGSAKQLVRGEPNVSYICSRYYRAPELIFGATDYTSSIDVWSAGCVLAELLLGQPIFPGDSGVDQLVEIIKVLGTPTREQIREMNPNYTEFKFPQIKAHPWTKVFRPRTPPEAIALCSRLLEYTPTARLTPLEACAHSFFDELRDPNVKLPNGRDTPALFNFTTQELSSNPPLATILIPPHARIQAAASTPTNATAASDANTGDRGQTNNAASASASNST

Kp at 24 h [1]: 13.6
inhibition [2]: > 80%
inhibition [3]: > 80%
inhibition (Homo sapiens [4]): > 80%
IC50 [5]: < 10 nM
half-life [6]: 2.8 h
inhibition (Homo sapiens [7]): > 80%
inhibition [8]: > 80%
inhibition [9]: > 80%
inhibition [10]: > 80%
inhibition [11]: 50%
SMILES: NC[C@@](O)(c1ccc(Cl)cc1)c1ccc(-c2cn[nH]c2)cc1 [AT-13148]
T/C (BT-474): 36%
